In patent US20220220135A1 (BAR-ILAN UNIVERSITY, priority 2019, published 2022):

What was measured:
NPP1 [1] = target: T1, NPP1 (Homo sapiens, UniProt P22413); test: Inhibition of human NPP1, ATP as substrate (analogues 9-12); type: biochemical; conditions: ATP (100 μM) as the substrate
T1 sequence (P22413 1-925): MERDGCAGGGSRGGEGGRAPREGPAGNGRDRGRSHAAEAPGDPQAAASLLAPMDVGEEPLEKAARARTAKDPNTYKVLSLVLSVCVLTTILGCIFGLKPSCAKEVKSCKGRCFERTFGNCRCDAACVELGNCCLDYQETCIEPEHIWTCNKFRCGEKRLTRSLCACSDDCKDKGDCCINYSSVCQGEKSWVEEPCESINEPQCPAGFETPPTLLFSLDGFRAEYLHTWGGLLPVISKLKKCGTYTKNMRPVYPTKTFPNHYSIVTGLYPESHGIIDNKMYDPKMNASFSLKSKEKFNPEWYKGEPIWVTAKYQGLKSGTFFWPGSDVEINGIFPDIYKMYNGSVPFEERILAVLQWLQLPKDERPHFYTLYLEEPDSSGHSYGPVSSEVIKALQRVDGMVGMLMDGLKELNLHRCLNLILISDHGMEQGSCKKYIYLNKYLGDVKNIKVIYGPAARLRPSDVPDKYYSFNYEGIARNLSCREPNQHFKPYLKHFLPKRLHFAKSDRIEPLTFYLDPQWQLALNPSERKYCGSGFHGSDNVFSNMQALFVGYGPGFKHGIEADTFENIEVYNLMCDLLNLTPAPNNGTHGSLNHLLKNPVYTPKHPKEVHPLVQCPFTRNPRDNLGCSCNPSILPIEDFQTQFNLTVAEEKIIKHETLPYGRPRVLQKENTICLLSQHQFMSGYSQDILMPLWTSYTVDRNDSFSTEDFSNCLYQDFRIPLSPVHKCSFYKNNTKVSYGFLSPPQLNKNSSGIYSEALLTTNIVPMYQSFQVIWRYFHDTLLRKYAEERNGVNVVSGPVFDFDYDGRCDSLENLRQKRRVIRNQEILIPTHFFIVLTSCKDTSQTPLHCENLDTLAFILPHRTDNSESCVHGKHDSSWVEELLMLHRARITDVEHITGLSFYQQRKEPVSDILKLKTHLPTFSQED
Procedure: FIG. 2: Inhibition of NTPDases and NPPs by analogues 9-12 using as substrates ATP (100 μM) for NTPDase1,2,3,8 and pNP-TMP (100 μM) for NPP1,3 (Panel A); and ATP (100 μM) was used as the substrate for NPP1 (Panel B);
At least 2 independent experiments were performed. In panel A, the activity with 100 μM ATP was set as 100%, which was 287±31, 395±67, 278±22, 119±26 nmol of Pi·min−1·mg of protein−1 for human NTPDase1, -2, -3 and -8, respectively, and the activity with 100 μM pNP-TMP was set as 100% which was 67±5, 21±1 nmol of p-nitrophenol·min−1·mg of protein−1 for human NPP1 and NPP3, respectively. In panel B, the activity with 100 μM ATP was set as 100% which was 34±7 nmol of PPi·min−1·mg of protein−1 for NPP1.

rat CD73 = target: T2, rat CD73 (Rattus norvegicus, UniProt P21588); test: Inhibition of rat CD73, 5 μM [3H]AMP as substrate; type: biochemical; conditions: 5 μM [3H]AMP as a substrate; n = 3
T2 sequence (P21588 29-551): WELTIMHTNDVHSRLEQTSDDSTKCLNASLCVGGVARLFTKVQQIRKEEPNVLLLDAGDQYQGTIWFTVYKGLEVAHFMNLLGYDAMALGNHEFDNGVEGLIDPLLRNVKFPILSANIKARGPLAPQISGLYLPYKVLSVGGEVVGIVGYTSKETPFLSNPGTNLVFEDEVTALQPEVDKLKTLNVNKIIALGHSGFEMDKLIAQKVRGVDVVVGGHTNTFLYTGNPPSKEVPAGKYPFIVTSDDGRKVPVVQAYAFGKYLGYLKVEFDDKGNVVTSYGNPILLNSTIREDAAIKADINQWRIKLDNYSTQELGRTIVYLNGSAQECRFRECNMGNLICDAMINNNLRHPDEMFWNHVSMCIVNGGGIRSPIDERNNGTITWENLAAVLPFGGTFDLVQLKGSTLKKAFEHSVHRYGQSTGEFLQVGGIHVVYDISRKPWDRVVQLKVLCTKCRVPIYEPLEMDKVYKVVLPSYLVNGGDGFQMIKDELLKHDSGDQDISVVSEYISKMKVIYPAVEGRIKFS

human P2Y2R = target: T3, human P2Y2R (Homo sapiens, UniProt P41231); test: Calcium mobilization in 1321N1 astrocytoma cells expressing human P2Y2R; type: cell-based
T3 construct: expressed in transfected cells; host or cells: 1321N1 astrocytoma cells
Procedure: Given the structural resemblance of 106-109 to the natural ligands of P2Y receptors, adenine and uracil nucleotides as natural substrates, were assessed for agonist potency on the human P2Y1, P2Y2, P2Y4, and P2Y6 receptor. To evaluate NPP1 selectivity of analogs 106-109, they were tested for their ability to activate of the uridine-nucleotide sensitive human recombinant P2Y1,2,4,6-receptors. The agonist potencies of this series of nucleotide analogues on the Gq protein-coupled human P2Y1R, P2Y2R, P2Y4R, and P2Y6R was determined by assessing its ability to induce calcium mobilization in stably transfected 1321N1 astrocytoma cells (Table 8). The nucleotide analogues were found in calcium mobilization assays to activate the P2Y2R with mid-micromolar potency.

NPP1 [2] = target: T1, NPP1; test: Inhibition of human NPP1, 100 μM ATP as substrate (FIG. 9, Table 6); type: biochemical; conditions: ATP (100 μM) as a substrate
Procedure: Each experiment was performed in triplicates;

T3 sequence (P41231 whole entry): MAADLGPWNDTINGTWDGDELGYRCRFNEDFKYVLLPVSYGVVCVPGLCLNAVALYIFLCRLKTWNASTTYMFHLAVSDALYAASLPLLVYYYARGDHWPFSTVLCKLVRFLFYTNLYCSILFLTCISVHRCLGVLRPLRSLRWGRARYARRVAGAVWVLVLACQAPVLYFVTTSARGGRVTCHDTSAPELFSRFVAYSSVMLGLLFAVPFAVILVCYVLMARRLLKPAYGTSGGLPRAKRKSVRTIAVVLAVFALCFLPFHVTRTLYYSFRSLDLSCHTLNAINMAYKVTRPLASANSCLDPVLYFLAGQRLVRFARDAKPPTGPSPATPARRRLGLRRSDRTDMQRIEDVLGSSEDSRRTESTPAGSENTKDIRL

| Compound | inhibition of human NPP1 activity (NPP1 [1]) | % inhibition ± SEM, rat CD73 (rat CD73) | % activation at 10 μM, P2Y2 (human P2Y2R) [%] | inhibition at 10 µM (NPP1 [2]; 10 μM, n = 3, read-out: % inhibition ± SEM at 10 μM, human NPP1) [%] | Ki (NPP1 [2]; read-out: Ki (μM ± SD), human NPP1 (converted)) [µM] |
| --- | --- | --- | --- | --- | --- |
| O=c1ccn([C@@H]2O[C@H](COP(=S)(S)OP(=O)(O)OP(=O)(O)OP(=S)(S)OC[C@H]3O[C@@H](n4ccc(=O)[nH]c4=O)[C@H](O)[C@@H]3O)[C@@H](O)[C@H]2O)c(=O)[nH]1 (some centres unmarked) [Analogue 12] | effectively blocked |  |  |  |  |
| Nc1ncnc2c1ncn2COCCOP(=S)(S)OP(=O)(O)O (centres unmarked) [compound 106] |  | n.i.d | 32 ± 18 | 68 ± 1 | 0.305 |
